Data from patent publication US11078189B2, “Pharmaceutical compounds” (REVIRAL LIMITED, priority 2017, dated 2021).
Where two headings read alike, the source gives them in different places.

Assays:
[1] = tested on: RSV A2 VR-1540; test: RSV plaque reduction assay; type: cell-based; details: human respiratory syncytial virus; Strain A2; n = 1; HEp-2 cells
Experimental: HEp-2 cells (ATCC, CCL23) were passaged in flasks and seeded in 96-well plates in DMEM containing antibiotics and supplemented with 10% FBS. During inoculation and subsequent incubation, cells were cultured in DMEM containing 3% FBS. 100 plaque forming unit (PFU)/well of RSV (RSV A2 VR-1540) was mixed with ten serial dilutions of compound. Subsequently, 100 μL of the virus/compound mixtures was added to confluent HEp-2 cell monolayers. The cells and virus/compound mixtures were incubated at 35° C. in a humidified 5% CO2 incubator for 1 day.
Cells were washed twice with PBS before adding 50% v/v EtOH/MeOH, and then stored at −20° C. On the day of the staining, fixative was first removed from the plates. Plates were washed 3× with PBS. A pre-titrated amount of the primary antibody was added in 60 μL PBS/2% milk powder, and plates incubated for 1 h at […]. The plates were washed 3× with PBS/0.05% Tween20 before addition of goat anti-mouse horse radish peroxidase in 60 μL PBS/2% milk powder, and incubated for 1 h at rt. Following three wash steps with PBS/0.05% Tween20, 60 μL ready-to-use TrueBlue was added and plates were incubated at rt for 10-15 min before adding MilliQ water. Plates were washed once with water, incubated for 30-60 min and after removal of water, air-dried in the dark.
Plates were scanned and analyzed using the Immunospot S6 UV analyzer, which is equipped with BioSpot analysis software for counting immunostained plaques (virospots). Plaque counts were used to calculate % infection relative to the mean of the spot count (SC) in the virus control wells for RSV. IC50/IC90 values were calculated as 50% or 90% reduction in signal, respectively, by interpolation of inhibition curves fitted with a 4-parameter nonlinear regression with a variable slope in GraphPad 5.0 (Prism).

[2] = Liver microsomal stability, dog; type: in vitro ADME; details: pooled liver microsomes, pH 7.4; dog liver microsomes 0.5 mg/mL; 3 μM compound; read-out: Liver Microsoinal Stability t1/2, dog
Experimental: Pooled liver microsomes are purchased from a reputable commercial supplier and stored at −80° C. prior to use. Microsomes (final protein concentration 0.5 mg/mL), 0.1 M phosphate buffer pH 7.4 and test compound (final substrate concentration 3 μM; final DMSO concentration 0.25%) are pre-incubated at 37° C. prior to the addition of NADPH (final concentration 1 mM) to initiate the reaction. The final incubation volume is 50 uL. A control incubation is included for each compound tested where 0.1 M phosphate buffer pH 7.4 is added instead of NADPH (minus NADPH). Two control compounds are included with each species. All incubations are performed singularly for each test compound. Each compound is incubated for 0, 5, 15, 30 and 45 min. The control (minus NADPH) is incubated for 45 min only. The reactions are stopped by transferring 20 μL of incubate to 60 μL MeOH at the appropriate time points. The termination plates are centrifuged at 2,500 rpm for 20 min at 4° C. to precipitate the protein. Following protein precipitation, the sample supernatants are combined in cassettes of up to 4 compounds, internal standard is added and samples analysed by LC-MS/MS. From a plot of In peak area ratio (compound peak area/internal standard peak area) against time, the gradient of the line is determined. Subsequently, half-life and intrinsic clearance are calculated.

[3] = target: T1, CYP2C19 (Homo sapiens, UniProt P33261); test: Cytochrome P450 inhibition CYP2C19; type: in vitro ADME; details: human liver microsomes
T1 construct: from tissue; host or cells: human liver microsomes
T1 sequence (P33261 whole entry): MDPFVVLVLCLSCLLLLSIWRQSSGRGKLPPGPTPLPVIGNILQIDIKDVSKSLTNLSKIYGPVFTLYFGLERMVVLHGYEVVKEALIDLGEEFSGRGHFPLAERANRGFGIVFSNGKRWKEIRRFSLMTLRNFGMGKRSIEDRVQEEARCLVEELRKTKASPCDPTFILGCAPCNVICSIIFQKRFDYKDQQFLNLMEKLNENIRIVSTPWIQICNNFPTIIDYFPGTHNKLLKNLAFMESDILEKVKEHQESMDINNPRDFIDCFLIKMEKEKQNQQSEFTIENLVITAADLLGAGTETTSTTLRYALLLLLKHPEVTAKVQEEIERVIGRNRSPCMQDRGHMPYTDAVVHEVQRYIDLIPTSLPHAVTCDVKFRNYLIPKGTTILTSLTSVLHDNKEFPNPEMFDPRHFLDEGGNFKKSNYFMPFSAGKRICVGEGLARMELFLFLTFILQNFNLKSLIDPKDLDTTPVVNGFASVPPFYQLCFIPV
Experimental: (§1) Test compound (0.1, 0.25, 1, 2.5, 10, 25 μM in DMSO; final DMSO concentration 0.3%) was incubated with human liver microsomes (0.25 mg/mL) and NADPH (1 mM) in the presence of a cytochrome P450 isoform-specific probe substrate. The metabolites were monitored by LC-MS/MS and a decrease in the formation of the metabolite compared to the vehicle control used to calculate an IC50 value (test compound concentration which produces 50% inhibition). A cytochrome P450 isoform-specific selective inhibitor was screened alongside the test compounds as a positive control.

[4] = target: T2, CYP2D6 (Homo sapiens, UniProt P10635); test: Cytochrome P450 inhibition CYP2D6; type: in vitro ADME; details: human liver microsomes
T2 construct: from tissue; host or cells: human liver microsomes
T2 sequence (P10635 whole entry): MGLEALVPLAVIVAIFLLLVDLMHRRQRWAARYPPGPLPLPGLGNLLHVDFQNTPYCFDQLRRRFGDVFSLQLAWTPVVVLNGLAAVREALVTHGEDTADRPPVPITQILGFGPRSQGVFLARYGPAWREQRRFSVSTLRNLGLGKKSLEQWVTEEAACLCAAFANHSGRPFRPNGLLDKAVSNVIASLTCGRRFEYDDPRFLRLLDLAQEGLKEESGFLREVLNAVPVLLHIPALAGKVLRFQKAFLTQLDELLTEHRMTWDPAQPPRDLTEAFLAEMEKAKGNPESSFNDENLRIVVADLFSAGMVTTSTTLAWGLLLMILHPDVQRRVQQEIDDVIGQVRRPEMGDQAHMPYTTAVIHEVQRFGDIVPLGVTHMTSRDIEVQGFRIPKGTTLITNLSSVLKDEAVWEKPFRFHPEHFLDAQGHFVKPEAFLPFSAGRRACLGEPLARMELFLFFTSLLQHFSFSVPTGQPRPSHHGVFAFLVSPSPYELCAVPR
Experimental: as §1

[5] = target: T3, CYP2B6 (Homo sapiens, UniProt P20813); test: Cytochrome P450 inhibition CYP2B6; type: in vitro ADME; details: human liver microsomes
T3 construct: from tissue; host or cells: human liver microsomes
T3 sequence (P20813 1-491): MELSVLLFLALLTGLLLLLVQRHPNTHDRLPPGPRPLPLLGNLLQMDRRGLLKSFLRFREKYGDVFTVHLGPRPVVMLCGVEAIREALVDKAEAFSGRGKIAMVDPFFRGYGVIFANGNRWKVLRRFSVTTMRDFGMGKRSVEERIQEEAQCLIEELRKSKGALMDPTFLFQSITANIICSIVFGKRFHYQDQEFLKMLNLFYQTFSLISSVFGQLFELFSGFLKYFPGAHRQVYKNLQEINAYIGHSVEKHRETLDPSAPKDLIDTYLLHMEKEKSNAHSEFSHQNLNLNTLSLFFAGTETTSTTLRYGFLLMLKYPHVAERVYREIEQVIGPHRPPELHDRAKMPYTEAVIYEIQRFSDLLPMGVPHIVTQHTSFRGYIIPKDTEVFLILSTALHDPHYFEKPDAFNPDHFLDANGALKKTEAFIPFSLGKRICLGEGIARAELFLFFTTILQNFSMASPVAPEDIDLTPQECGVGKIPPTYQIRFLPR
Experimental: as §1

[6] = target: T4, CYP1A2 (Homo sapiens, UniProt P05177); test: Cytochrome P450 inhibition CYP1A2; type: in vitro ADME; details: human liver microsomes
T4 construct: from tissue; host or cells: human liver microsomes
T4 sequence (P05177 1-516): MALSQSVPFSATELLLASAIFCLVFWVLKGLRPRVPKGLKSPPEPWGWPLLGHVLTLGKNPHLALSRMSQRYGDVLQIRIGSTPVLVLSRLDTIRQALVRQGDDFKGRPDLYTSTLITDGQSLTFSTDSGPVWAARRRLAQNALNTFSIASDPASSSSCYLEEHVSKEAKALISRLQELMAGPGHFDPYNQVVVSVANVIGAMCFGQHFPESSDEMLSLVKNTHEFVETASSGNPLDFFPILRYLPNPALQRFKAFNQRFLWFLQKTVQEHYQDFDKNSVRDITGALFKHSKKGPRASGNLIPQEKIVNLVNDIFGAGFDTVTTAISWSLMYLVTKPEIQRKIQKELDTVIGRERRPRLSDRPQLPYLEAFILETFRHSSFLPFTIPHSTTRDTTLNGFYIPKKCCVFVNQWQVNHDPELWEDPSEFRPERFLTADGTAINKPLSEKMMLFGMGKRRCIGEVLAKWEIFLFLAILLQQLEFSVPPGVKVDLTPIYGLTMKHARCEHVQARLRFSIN
Experimental: as §1

[7] = target: T5, CYP3A4 (Homo sapiens, UniProt P08684); test: Cytochrome P450 inhibition CYP3A4; type: in vitro ADME; details: human liver microsomes
T5 construct: from tissue; host or cells: human liver microsomes
T5 sequence (P08684 whole entry): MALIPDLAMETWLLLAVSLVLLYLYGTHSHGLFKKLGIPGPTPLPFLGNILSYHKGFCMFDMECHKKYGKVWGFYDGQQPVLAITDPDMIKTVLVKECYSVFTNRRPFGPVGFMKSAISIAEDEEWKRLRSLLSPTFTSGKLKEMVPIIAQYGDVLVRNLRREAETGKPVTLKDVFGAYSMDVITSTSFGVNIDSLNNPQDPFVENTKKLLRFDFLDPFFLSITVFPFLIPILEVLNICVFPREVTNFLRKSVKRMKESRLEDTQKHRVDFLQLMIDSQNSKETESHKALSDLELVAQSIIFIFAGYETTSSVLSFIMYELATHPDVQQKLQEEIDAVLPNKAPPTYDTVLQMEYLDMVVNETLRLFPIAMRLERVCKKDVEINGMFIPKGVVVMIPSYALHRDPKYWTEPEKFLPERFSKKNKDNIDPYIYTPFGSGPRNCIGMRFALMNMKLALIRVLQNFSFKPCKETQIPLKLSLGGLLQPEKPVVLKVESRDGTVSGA
Experimental: as §1

SMILES	IC50 [1] [nM]	IC90 [1] [nM]	half-life at 3 μM [2] [h]	IC50 [3] [nM]	IC50 [4] [nM]	IC50 [5] [nM]	IC50 [6] [nM]	IC50 ([7]; substrate = midazolam, read-out: Cytochrome P450 inhibition IC50 CYP3A4 (midazolam)) [nM]	IC50 ([7]; substrate = testosterone, read-out: Cytochrome P450 inhibition IC50 CYP3A4 (testosterone)) [nM]
CCS(=O)(=O)N1CCC(n2c(CN3C(=O)C4(CC4)c4ccc(F)cc43)nc3cc(Cl)ccc32)CC1 [Compound 35, 1′-({5-Chloro-1-[1-(ethanesulfonyl)piperidin-4-yl]-1H-1,3-benzodiazol-2-yl}methyl)-6′-fluoro-1′,2′-dihydrospiro[cyclopropane-1,3′-indole]-2′-one]	0.87	5.2	2.77	–	–	–	–	–	–
CS(=O)(=O)N1CCC(n2c(CN3C(=O)C4(CC4)c4ccc(F)cc43)nc3cc(Cl)ccc32)CC1 [Compound 33, 1′-{[5-Chloro-1-(1-methanesulfonylpiperidin-4-yl)-1H-1,3-benzodiazol-2-yl]methyl}-6′-fluoro-1′,2′-dihydrospiro[cyclopropane-1,3′-indole]-2′-one]	0.49	4.4	3.1	> 25000	> 25000	> 25000	> 25000	674	3940
